From patent publication US7902170B2, “Influenza virus binding, sialylated oligosaccharide substance and use thereof” (priority 2000, dated 2011)
“Also recorded” adds a separate entry of the source.

Test system: avian virus A/duck/Czechoslovakia/56, H4N6
Assay type: binding, avian influenza A virus (H4N6)

Substance	Binding of avian influenza virus HRP conjugate to glycolipid on TLC plate
NeuAcα3Galβ4GlcβCer [GM3]	not observed
sulfatide	probably unspecific interaction
NeuAcα3Galβ3GalNAcβ4(NeuAcα3)Galβ4GlcβCer [GD1a]	binding
NeuAcα3Galβ3GalNAcβ4(NeuAcα8NeuAcα3)Galβ4GlcβCer [GT1b]	binding
NeuAcα3Galβ4GlcNAcβ3Galβ4GlcβCer [S-3-PG]	binding; also recorded: bound
